Measured values: article PMC4488150, “Structure-Based Optimization and Biological Evaluation of Pancreatic Lipase Inhibitors as Novel Potential Antiobesity Agents” (Natural Products and Bioprospecting, 2015)
“Also recorded” adds a separate entry of the source. Each block holds one molecule with its values, some of them ahead of it.

Legend:
[1] = target: T1, Porcine pancreatic lipase (Sus scrofa, UniProt P00591); assay: In vitro pancreatic lipase inhibitory activity (p-nitrophenyl butyrate hydrolysis); assay type: biochemical; conditions: for pancreatic lipase inhibitory activity compared with compound A1: compared with compound A1 (best inhibitor of the first series); for IC50: read-out: IC50 against pancreatic lipase
T1 sequence (P00591 1-450): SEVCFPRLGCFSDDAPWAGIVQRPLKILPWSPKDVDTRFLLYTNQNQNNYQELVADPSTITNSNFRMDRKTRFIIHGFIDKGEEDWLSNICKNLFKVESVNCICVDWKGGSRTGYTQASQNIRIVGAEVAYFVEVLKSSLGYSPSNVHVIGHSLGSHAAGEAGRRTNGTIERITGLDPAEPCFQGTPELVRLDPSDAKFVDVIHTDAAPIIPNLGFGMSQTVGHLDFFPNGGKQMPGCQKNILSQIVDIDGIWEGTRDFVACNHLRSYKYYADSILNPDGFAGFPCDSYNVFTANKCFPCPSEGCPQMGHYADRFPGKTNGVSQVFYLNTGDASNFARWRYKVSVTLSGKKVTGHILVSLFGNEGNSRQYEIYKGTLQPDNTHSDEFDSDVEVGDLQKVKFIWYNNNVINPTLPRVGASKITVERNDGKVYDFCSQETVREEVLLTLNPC
Protocol: Compounds A1–A54 were then evaluated for their bioactivity to inhibit pancreatic lipase. Each test was performed in triplicate, and the IC50 values were calculated based on the amount of inhibitor required to produce 50 % inhibition compared with the DMSO vehicle control.
Porcine pancreatic lipase was used to evaluate the inhibitory activity of the monascus pigment derivatives. p-Nitrophenyl butyrate ([…]) was used as the substrate. First, an enzyme-buffer solution was prepared by adding 30 μL of lipase solution (in 10 mM morpholinepropanesulfonic acid (MOPS) and 1 mM EDTA, pH 6.8) to 850 μL of Tris buffer (100 mM Tris–HCl and 5 mM CaCl2, pH 7.0). Pigment solutions were prepared by dissolving each pigment in a mixture (1:1) of ethanol and distilled water. Subsequently, 100 μL of the pigment solution was mixed with 880 μL of the enzyme-buffer solution. Following incubation of the enzyme-pigment mixture for 15 min at 37 °C, 20 μL of the substrate solution (10 mM p-NPB in dimethyl formamide) was added. Enzymatic reactions were conducted for 15 min at 37 °C. The hydrolysis of p-NPB to p-nitrophenol was monitored at 400 nm using a spectrophotometer. One unit of the enzyme was defined as the amount required to liberate 1 μmol of p-nitrophenol under standard assay conditions.

[2] = system: HFD-induced C57BL/6 J obese mice; assay: High-fat diet-induced obese mice (diet-induced obesity); assay type: in vivo; conditions: for cholesterol (CHO) level / triglyceride (TG) level: blood after final dose
Protocol: Male C57BL/6 J mice were obtained from Beijing HFK Bioscience Co., Ltd. (Certificate No. SCXK 2014-0004), housed in a temperature- and humidity-controlled room with a 12-hour light/dark cycle, and allowed free access to solid food and tap water for one week prior to the experiments. All of the procedures were performed in accordance with the Institute Ethical Committee for Experimental Animal Use of the Yunnan Province and the Kunming Institute of Botany.
The kits used to determine the triglyceride (TG) and cholesterol (CHO) levels were obtained from the Zhongsheng Beikong Bioengineering Institute.
Three-week-old C57BL/6 J male mice were fed a normal diet for 1 week for acclimatization. Randomly selected mice were fed a normal diet or a 45 % fat diet. After 4 months, the body weights of the mice in the obese group were 20 % higher than those in the control group. These obese mice were randomly divided into the following three groups: the model (45 % fat diet), orlistat (45 % fat diet + orlistat) and Compound groups (45 % fat diet + compound C1). The drugs (50 mg/kg orlistat or 100 mg/kg compound C1) were intragastrically administered for 1 month. During this period, the mice were weighed once every 3 days. Following administration of the final dose, blood samples were collected via the orbital vein after ethyl ether exposure, and epididymal fat was isolated. TG and CHO levels were measured using kits. The ratio of epididymal fat to body weight represents the amount of white adipose tissue (WAT) of each mouse (normalized to the body weight).
Student’s t test was used for comparisons between groups, as indicated in Fig. 2. #p < 0.05, ## or **p < 0.01.

[3] = system: HFD-induced C57BL/6 J obese mice; assay: as above; assay type: in vivo; conditions: up to 400 mg/kg, data not shown
[4] = compound C1 100 mg/kg, 100 mg/kg

Compound: CCCCCCCCN(CCCCCCCC)C(=O)C1=C[C@@]2(CC=C(C)C)C(=O)O[C@H]2C1 [Compound C2, (1R,5S)-1-(3-methylbut-2-en-1-yl)-N,N-dioctyl-7-oxo-6-oxabicyclo[3.2.0]hept-2-ene-3-carboxamide]
- pancreatic lipase inhibitory activity compared with compound A1 [1]: higher inhibitory activities than compound A1

- IC50 [1]: 83 nM
Compound: CC(C)=CC[C@@]12C=C(COC(=O)CCCCCc3ccccc3)C[C@@H]1OC2=O [Compound A1, ((1R,5S)-1-(3-methylbut-2-en-1-yl)-7-oxo-6-oxabicyclo[3.2.0]hept-2-en-3-yl)methyl-6-phenylhexanoate]

- IC50 [1]: 30 nM
Compound: CCCCCC[C@@H](OC(=O)[C@](OC)(c1ccccc1)C(F)(F)F)C1=C[C@@]2(CC=C(C)C)C(=O)O[C@H]2C1 [Compound B1, (R)-(R)-1-((1R,5S)-1-(3-methylbut-2-en-1-yl)-7-oxo-6-oxabicyclo[3.2.0]hept-2-en-3-yl)heptyl-3,3,3-trifluoro-2-methoxy-2-phenylpropanoate]

Compound: CCCCCCCCCCC[C@@H](C[C@@H]1OC(=O)[C@H]1CCCCCC)OC(=O)[C@H](CC(C)C)NC=O [orlistat, reference compound]
- cholesterol (CHO) level ([2]; orlistat 50 mg/kg): significantly decreased
- triglyceride (TG) level ([2]; orlistat 50 mg/kg): significantly decreased
- fat weight (epididymal white adipose tissue, normalized to body weight) ([2]; orlistat 50 mg/kg, one month): gradually decreased; also recorded: significantly decreased
- body weight ([2]; orlistat 50 mg/kg, one month, intragastric): gradually decreased

Compound: CCCCCCCN(CCCCCCC)C(=O)C1=C[C@@]2(CC=C(C)C)C(=O)O[C@H]2C1 [Compound C3, (1R,5S)-N,N-diheptyl-1-(3-methylbut-2-en-1-yl)-7-oxo-6-oxabicyclo[3.2.0]hept-2-ene-3-carboxamide]
- pancreatic lipase inhibitory activity compared with compound A1 [1]: higher inhibitory activities than compound A1

Compound: CCCCCCCCN(CCCCCCC)C(=O)C1=C[C@@]2(CC=C(C)C)C(=O)O[C@H]2C1 [Compound C1, (1R,5S)-N-heptyl-1-(3-methylbut-2-en-1-yl)-N-octyl-7-oxo-6-oxabicyclo[3.2.0]hept-2-ene-3-carboxamide]
- in vivo activity compared with orlistat ([2]; C1 100 mg/kg vs orlistat 50 mg/kg): lower activity than that of orlistat
- body weight ([2]; compound C1 100 mg/kg, 33 days, intragastric, vs HFD model group, 100 mg/kg): gradually decreased; also recorded: weight loss; also recorded: significantly low; also recorded: significantly lower
- HFD-induced obesity ([2]; compound C1 100 mg/kg, 33 days, intragastric, 100 mg/kg): significantly decreased
- cholesterol (CHO) level [2, 4]: significantly decreased
- triglyceride (TG) level [2, 4]: significantly decreased; also recorded: significantly reduced
- fat weight (epididymal white adipose tissue, normalized to body weight) ([2]; compound C1 100 mg/kg, one month, 100 mg/kg): gradually decreased; also recorded: significantly decreased
- IC50 [1]: 14 nM
- pancreatic lipase inhibitory activity, fold higher than that of vibralactone ([1]; relative to vibralactone): more than 3000 fold
- toxicity or adverse behavioral effects [3]: without toxicity or adverse behavioral effects

- IC50 [1]: 47300 nM
Compound: CC(C)=CC[C@@]12C=C(CO)C[C@@H]1OC2=O [vibralactone, reference compound]
